Colon inflammation and colon necrosis data for two compounds are collected here from patent US20160303133A1, “TREATMENT OF GASTROINTESTINAL AND OTHER DISORDERS” (NUMEDII, INC., priority 2013, published 2016).

For test [1], the system named is TNBS (2,4,6-trinitrobenzenesulfonic acid) rat colitis model. Nature of the test: Prophylactic efficacy study in TNBS rat colitis model, colon histopathology (Example 3). The class given is in vivo, Sprague-Dawley rats. The method, then:
Prophylactic efficacy study in TNBS (2,4,6-trinitrobenzenesulfonic acid) rat colitis model.
Preparation of doses: For Groups 1, 2: 50 ml 0.1M acetic acid and 30 ml sterile water were combined. The pH was adjusted from 4.45 to 6.7 with 0.1N NaOH. The stir bar was removed and the solution made up to 100 ml with sterile water. For Group 3, 133.9 mg prednisolone 21-hemisuccinate sodium salt was dissolved in 100 ml de-ionized water to prepare a 1 mg/ml solution. For Group 4, 600 mg Nadolol was dissolved in 50 ml 0.1M acetic acid and 30 ml sterile water. The pH was adjusted from 4.45 to 6.7 with 0.1N NaOH, and the solution made up to 100 ml with sterile water. For Group 5, 1.2 g Nadolol was dissolved in 50 ml 0.1M acetic acid and 30 ml sterile water. The pH was adjusted from 4.45 to 6.7 with 0.1N NaOH and the solution made up to 100 ml with sterile water. For Group 6: 1 g cellulose gum was dissolved in 50 ml 0.1N acetic acid and 30 ml de-ionized water. The volume was made up to 100 ml with sterile water. For Group 7, 600 mg Nadolol was dissolved in 50 ml 0.1M acetic acid and 30 ml sterile water. 1 g cellulose gum was added and dissolved into the solution and the solution made up to 100 ml with sterile water. For Group 8, 1.2 g Nadolol was dissolved in 50 ml 0.1M acetic acid and 30 ml sterile water. 1 g cellulose gum was added and dissolved into the solution and the solution made up to 100 ml with sterile water.
(Day −1) 84 Sprague-Dawley rats (male, 160-180 g each) were sorted into treatment groups based upon average body weight. The rats were weighed and food-deprived. The rats in groups 1-5 were dosed orally (PO) at 10 ml/kg with their respective solutions according to Table 2. The rats in Groups 6-8 were anesthetized intra-rectally (IR) instilled with 10 ml/kg of their respective treatment according to Table 2, the anus was pinched closed and the rat held inverted until recovered from anesthesia (at least 1 min).
After 24 hours (day 0), an aqueous solution of TNBS (2,4,6-trinitrobenzenesulfonic acid) 16 mg/ml in 50% ethanol was made and the rats were weighed and dosed as in TABLE 2. One hour later, the rats anesthetized and Groups 2-8 were intra-rectally instilled with 4 ml/kg TNBS solution (64 mg/kg), the anus was pinched closed and the rat held inverted until recovered from anesthesia (at least 1 min). Group 1 received de-ionized water. The rats were re-fed after recovery from TNBS instillation.
The rats were weighed and dosed as in TABLE 2 each day for the next six days (day 2-7), The rats were anesthetized and exsanguinated into pre-chilled serum separator tubes, the blood processed to serum which was stored in several aliquots at −80° C. A midline incision was made in the abdomen and the colon was evaluated for adhesions and stricture. The colon was removed and the length recorded. A midline incision was made the entire length of the colon, the contents removed and the colon weight and colon wall thickness recorded. A section of the colon was preserved in 20 volumes of 10% neutral buffered formalin. The end of the colon section at the rectal end of the section was edged with Evans Blue dye for orientation purposes. Another section of the colon was weighed and homogenized on an ice batch in 5 ml PBS. The homogenate was centrifuged and aliquots stored in labeled Eppendorf tubes at −80° C. The following parameters were used to determine colonic score: • Colonic Score Parameters • a) Adhesions: • 1) none=0 • 2) minimal=1 • 3) involving several bowel loops=2 • b) Strictures: • 1) none=0 • 2) mild=1 • 3) moderate=2 • 4) severe, proximal dilatation=3 • c) Ulcers: • 1) none=0 • 2) linear ulceration <1 cm=1 • 3) two linear ulcers <1 cm=2 • 4) more sites of ulceration or one large ulcer=3 • d) Wall thickness: • 1) less than 1 mm=0 • 2) 1-3 mm=1 • 3) >3 mm=2
The formalin-preserved colon samples were submitted for histological preparation and evaluation. […]

In test [2] the test system is prophylactic TNBS rat colitis model. Put plainly: TNBS dose escalation study, colon histopathology (Example 4). Format: in vivo, Sprague-Dawley (SD) rats. Details: key to colon necrosis: no: 0=No necrosis; very minimal: 0.5=Very minimal, focal, affects <2% of the total colon; minimal: 1.0=Minimal focal or multifocal, affects 2-10% of the total colon; mild: 2.0=Mild, focal or multifocal, affects 11-25% of the total colon; moderate: 3.0=Moderate focal or multifocal, affects 26-50% of the total colon; marked: 4.0=Marked focal or multifocal, affects 51-75% of the total colon; severe: 5.0=Severe affects >75% of the total colon. The text has this:
Inflammation—neutrophil and macrophage infiltration predominantly, fibroplasia and neovascularization in areas of transmural necrosis 0=No inflammation 0.5=Very minimal focal infiltrates in mucosa only, affects <2% of the total colon 1.0=Minimal multifocal infiltrates in mucosa only, affects 2-10% of the total colon 2.0=Mild multifocal infiltrates affecting mucosa, submucosa, outer muscle layers and serosa, affects 11-25% of the total colon 3.0=Moderate multifocal infiltrates affecting mucosa, submucosa, outer muscle layers and serosa, affects 26-50% of the total colon 4.0=Marked multifocal to diffuse infiltrates affecting mucosa, submucosa, outer muscle layers and serosa, affects 51-75% of the total colon 5.0=Severe multifocal to diffuse infiltrates affecting mucosa, submucosa, outer muscle layers and serosa, affects >75% of the total colon. Necrosis—measure the total length of all colon sections, measure the total length of necrotic mucosa devoid of epithelium to determine % area affected 0=No necrosis 0.5=Very minimal, focal, affects <2% of the total colon 1.0=Minimal focal or multifocal, affects 2-10% of the total colon 2.0=Mild, focal or multifocal, affects 11-25% of the total colon 3.0=Moderate focal or multifocal, affects 26-50% of the total colon 4.0=Marked focal or multifocal, affects 51-75% of the total colon 5.0=Severe, affects >75% of the total colon Sprague-Dawley (SD) rats 118 (male, 180-200 g) were assigned to 11 groups of 10 or 12 rats per group so that each group has approximately the same mean weight. (Day −1) Initiate daily dosing of Groups 1-11 as in TABLE 1. Rats are deprived of food for 24 hours prior to disease initiation. 1) Intra-rectal (IR) administration is accomplished by briefly anesthetizing the rats, administering the test material at 10 ml/kg via a 20 gauge feeding needle inserted via the rectum, maintaining the rat in an inverted position with anus pinched shut until recovered from anesthesia. 2) Oral formulations are first dissolved in 0.05N acetic acid and pH adjusted to 6-7 with 0.1N NaOH. [table] (DAY 0) Prepare TNBS Solution (50% TNBS: 50% 200 proof ethanol; 16 mg/ml TNBS). Dose as in TABLE 3. After 1 hour, rats in Groups 2-11 are administered TNBS. Anesthetize rats and administer 64 mg/kg (4 ml/kg) TNBS Solution into colon of each rat, then re-feed rats. (DAY 7): Rats are weighed and dosed as in Table 3. […]. Terminal blood samples are collected from anesthetized rats. Samples are collected in pre-chilled-tubes and processed to serum. Store serum at −80° C. in several aliquots. A midline incision is made on each animal. Colon is removed and length measured and recorded. A longitudinal incision is made on each colon. Fecal material is gently washed away with saline. Excess fluid is gently blotted and colon weighed. The severity of IBD is assessed using the following scoring system: maximum score=10 • 1) Adhesions: • none=0 • minimal=1 • involving several bowel loops=2 • 2) Strictures: • none=0 • mild=1 • moderate=2 • severe, proximal dilatation=3 • 3) Ulcers: • none=0 • inear ulceration <1 cm=1 • two linear ulcers <1 cm=2 • more sites of ulceration or one large ulcer=3 • 4) Wall thickness: • less than 1 mm=0 • 1-3 mm=1 • >3 mm=2 A section of colon is preserved in 10 volumes of 10% neutral buffered formalin for histopathology. A section of colon is homogenized in PBS, centrifuged, and aliquots of the homogenate in labeled Eppendorf tubes are stored at −80° C. for cytokine analysis.

The mark [3] stands for this setting: 10 mpk, FIG. 4c, animal with approximate mean summed score for the group.
[4] abbreviates: 60 mpk, FIG. 5c (route not given, IR by group order of Table 2).
The mark [5] stands for this setting: 60 mpk, FIG. 4d (route not given, PO by group order of Table 2).
The mark [6] stands for this setting: 120 mpk, FIG. 5a (route not given, PO by group order of Table 2).
Setting [7] is: 120 mpk, FIG. 5d (route not given, IR by group order of Table 2).

For `C[C@]12C=CC(=O)C=C1CC[C@@H]1[C@@H]2[C@@H](O)C[C@@]2(C)[C@H]1CC[C@]2(O)C(=O)CO` [prednisolone], the colon inflammation entry in test [1] (setting [3]) is “minimal (1.0=Minimal multifocal infiltrates in mucosa only, affects 2-10% of the total colon)”; in test [2] (PO 10 mpk, FIG. 12c), “minimal (1.0=Minimal multifocal infiltrates in mucosa only, affects 2-10% of the total colon)”. The colon necrosis entry in test [1] (setting [3]) was “very minimal (0.5=Very minimal, focal, affects <2% of the total colon)”; in test [2] (PO 10 mpk, FIG. 12c), “minimal (1.0=Minimal focal or multifocal, affects 2-10% of the total colon)”.

In the case of `CC(C)(C)NCC(O)COc1cccc2c1CC(O)C(O)C2` (centres unmarked) [nadolol], the colon inflammation entry in test [1] (setting [4]) was “moderate (3.0=Moderate multifocal infiltrates affecting mucosa, submucosa, outer muscle layers and serosa, affects 26-50% of the total colon)”; in test [1] (setting [5]), “moderate (3.0=Moderate multifocal infiltrates affecting mucosa, submucosa, outer muscle layers and serosa, affects 26-50% of the total colon)”; in test [1] (setting [6]), “moderate (3.0=Moderate multifocal infiltrates affecting mucosa, submucosa, outer muscle layers and serosa, affects 26-50% of the total colon)”; in test [1] (setting [7]) it was “mild (2.0=Mild multifocal infiltrates affecting mucosa, submucosa, outer muscle layers and serosa, affects 11-25% of the total colon)”; in test [2] (IR 6 mpk, FIG. 12i), “mild (2.0=Mild multifocal infiltrates affecting mucosa, submucosa, outer muscle layers and serosa, affects 11-25% of the total colon)”; in test [2] (IR 19 mpk, FIG. 12j) it was “moderate (3.0=Moderate multifocal infiltrates affecting mucosa, submucosa, outer muscle layers and serosa, affects 26-50% of the total colon)”. The colon inflammation entry is “severe (5.0=Severe multifocal to diffuse infiltrates affecting mucosa, submucosa, outer muscle layers and serosa, affects >75% of the total colon)” in test [2] (IR 60 mpk, FIG. 12k); “mild (2.0=Mild multifocal infiltrates affecting mucosa, submucosa, outer muscle layers and serosa, affects 11-25% of the total colon)” in test [2] (PO 6 mpk, FIG. 12d); “marked (4.0=Marked multifocal to diffuse infiltrates affecting mucosa, submucosa, outer muscle layers and serosa, affects 51-75% of the total colon)” in test [2] (PO 19 mpk, FIG. 12e); “severe (5.0=Severe multifocal to diffuse infiltrates affecting mucosa, submucosa, outer muscle layers and serosa, affects >75% of the total colon)” in test [2] (PO 60 mpk, FIG. 12f); “mild (2.0=Mild multifocal infiltrates affecting mucosa, submucosa, outer muscle layers and serosa, affects 11-25% of the total colon)” in test [2] (PO 120 mpk, FIG. 12g). Also, the colon necrosis entry is given as “moderate (3.0=Moderate focal or multifocal, affects 26-50% of the total colon)” in test [1] (setting [4]); “moderate (3.0=Moderate focal or multifocal, affects 26-50% of the total colon)” in test [1] (setting [5]); “mild (2.0=Mild, focal or multifocal, affects 11-25% of the total colon)” in test [1] (setting [6]); “mild (2.0=Mild, focal or multifocal, affects 11-25% of the total colon)” in test [1] (setting [7]); “no” in test [2] (IR 6 mpk, FIG. 12i); “mild (2.0=Mild, focal or multifocal, affects 11-25% of the total colon)” in test [2] (IR 19 mpk, FIG. 12j). Besides, the colon necrosis result in test [2] (IR 60 mpk, FIG. 12k) was “severe (5.0=Severe affects >75% of the total colon)”; in test [2] (PO 6 mpk, FIG. 12d), “severe (5.0=Severe affects >75% of the total colon)”; in test [2] (PO 19 mpk, FIG. 12e), “marked (4.0=Marked focal or multifocal, affects 51-75% of the total colon)”; in test [2] (PO 60 mpk, FIG. 12f), “severe (5.0=Severe affects >75% of the total colon)”; in test [2] (PO 120 mpk, FIG. 12g), “no”.
